# How the values were obtained:
# [1] = test system: rhesus monkey NPY Y4 receptor (SEQ ID NO: 1); assay: Receptor binding assay using rhesus monkey Y4 receptor-expressing COS-7 cell membrane fractions (SEQ ID NO: 1), inhibition of [125I]human PP binding; settings: expression vector SEQ ID NO: 1; COS-7 membrane fraction; 59 pM [125I]human PP; read-out: IC50 against specific [125I]human PP binding
# Description: (§1) COS-7 cells were transfected with a pEF1/[…]B plasmid vector containing the nucleotide sequence of SEQ ID NO: 1 or 3, using LipofectAmine Plus (Invitrogen). After 48 hours, the cells were recovered, and disrupted in 10 mM MOPS buffer (pH 7.4) containing 20% sucrose, 154 mM NaCl, 10 mM KCl and 0.8 mM CaCl2, using a Polytron homogenizer (Kinematica) while cooling on ice. The obtained homogenate was centrifuged at 1,000×g, 4° C. for 15 minutes, the supernatant was centrifuged at 90,000×g for 50 minutes, and the precipitate was collected. It was then suspended in 5 mM HEPES/Tris buffer (pH 7.4) and then centrifuged again at 90,000×g for 50 minutes, after which the obtained precipitate was collected as the membrane sample. […] After rinsing with 5 mM Tris buffer (pH 7.4) containing 0.3% bovine serum albumin and drying, MicroScint0 (Perkin-Elmer) was added, and a TopCount HTS (Packard) was used to measure the residual radioactivity on the filter.
# [2] = test system: rhesus monkey NPY Y4 receptor (SEQ ID NO: 3); assay: Receptor binding assay using rhesus monkey Y4 receptor-expressing COS-7 cell membrane fractions (SEQ ID NO: 3), inhibition of [125I]human PP binding; settings: expression vector SEQ ID NO: 3; COS-7 membrane fraction; 59 pM [125I]human PP; read-out: IC50 against specific [125I]human PP binding
# Chain of rhesus monkey NPY Y4 receptor (SEQ ID NO: 3) (as listed by the source): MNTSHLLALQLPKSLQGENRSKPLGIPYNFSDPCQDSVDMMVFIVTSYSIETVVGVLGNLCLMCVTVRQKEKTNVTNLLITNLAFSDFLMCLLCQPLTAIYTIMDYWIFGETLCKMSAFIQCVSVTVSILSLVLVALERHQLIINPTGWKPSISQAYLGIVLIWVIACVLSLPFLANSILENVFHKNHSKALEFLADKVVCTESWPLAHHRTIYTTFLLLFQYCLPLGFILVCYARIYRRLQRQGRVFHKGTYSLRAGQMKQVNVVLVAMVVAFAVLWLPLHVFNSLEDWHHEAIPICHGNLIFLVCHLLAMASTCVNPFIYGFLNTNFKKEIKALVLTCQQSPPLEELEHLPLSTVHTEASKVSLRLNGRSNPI
# Description: as §1
# [3] = test system: rhesus monkey NPY Y4 receptor (SEQ ID NO: 3); assay: [125I]human PP binding assay using COS-7 cells expressing rhesus monkey Y4 receptor (SEQ ID NO: 3); settings: COS-7 cells transfected with SEQ ID NO: 3; 50 pM [125I]human PP; non-specific binding with 1 μM human PP
# Description: (§2) COS-7 cells (American Type Culture Collection) were seeded in a 24-well culturing plate at a density of 5×10^4 cells/well, and after 24 hours, they were transfected with a pEF1/V5-HisB plasmid vector containing the nucleotide sequence of SEQ ID NO: 1 or 3 obtained in Example 1 or the same vector without the insert (mock), using Efectene (Qiagen). After culturing for 48 hours, incubation was performed at 37° C. for 30 minutes in 240 μl/well of reaction buffer (Hanks' balanced salt solution containing 20 mM HEPES and 0.2% bovine serum albumin; pH 7.4) to which 50 pM [^125I]human PP (Perkin-Elmer) had been added. After rinsing with ice-cooled reaction buffer, the cells were lysed and recovered with 2M NaOH and the radioactivity was measured with a γ-counter (Packard, Cobra).
# (§3) Non-specific binding was also measured by adding 1 μM human PP to the reaction solution.
# [4] = test system: rhesus monkey NPY Y4 receptor (SEQ ID NO: 1); assay: [125I]human PP binding assay using COS-7 cells expressing rhesus monkey Y4 receptor (SEQ ID NO: 1); settings: COS-7 cells transfected with SEQ ID NO: 1; 50 pM [125I]human PP; non-specific binding with 1 μM human PP
# Description: as §2, §3
# Chain of rhesus monkey NPY Y4 receptor (SEQ ID NO: 1) (as listed by the source): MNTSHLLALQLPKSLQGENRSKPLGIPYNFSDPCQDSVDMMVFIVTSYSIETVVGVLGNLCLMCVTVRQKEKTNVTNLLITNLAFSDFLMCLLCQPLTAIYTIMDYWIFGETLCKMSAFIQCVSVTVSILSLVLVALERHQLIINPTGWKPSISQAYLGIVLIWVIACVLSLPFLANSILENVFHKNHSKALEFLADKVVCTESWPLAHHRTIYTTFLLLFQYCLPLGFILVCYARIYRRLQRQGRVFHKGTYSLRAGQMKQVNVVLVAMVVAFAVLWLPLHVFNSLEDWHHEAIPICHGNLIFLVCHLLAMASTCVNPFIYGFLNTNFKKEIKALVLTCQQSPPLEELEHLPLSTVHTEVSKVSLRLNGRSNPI
Substance,IC50 [1],IC50 [2],Specific binding [3],Specific binding [4]
Neuropeptide-Y [Human NPY],100 nM,97 nM,,
[125I]human PP: 125I-labelled human PP radioligand (Perkin-Elmer),,,1394 cpm,1238 cpm

# From patent publication US20070083037A1, “Monkey npy y4 receptor and method of evaluating compound” (priority 2003, published 2007)
